Test results: US9284321B2, “Piperazino[1,2-a]indol-1-ones and [1,4]diazepino[1,2-a]indol-1-one” (Hoffmann-La Roche Inc., priority 2012, dated 2016)

Columns and labels:
[1] = test system: human embryonic stem cell derived neural stem cells (NSCs); assay: Neural Stem Cell Proliferation Assay (neurogenesis assay, ATP levels by CellTiterGlo); format: cell-based; details: 96 h, compound concentration at which 150% activity of control (100%) is reached, NSC proliferation by ATP level after 4 days incubation, dose response 8 μM to 8 nM
Method in brief: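 Human ESC-derived NSCs (dual SMAD inhibition) seeded 4 h before compounds, 11-point 2-fold series 8 μM–8 nM; 4 days at 37 °C, 5% CO2. ATP by CellTiterGlo luminescence as cell-number proxy, response as % of media control (0.25% DMSO); EC150 = concentration giving 150% of control.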

| Structure (SMILES) | melting point [°C] | EC (150% of control) [1] [µM] |
| --- | --- | --- |
| N#Cc1cc(-c2ccc(Cl)c(F)c2)c2c(c1)cc1n2CCNC1=O [Example 172, 6-(4-Chloro-3-fluoro-phenyl)-1-oxo-1,2,3,4-tetrahydro-pyrazino[1,2-a]indole-8-carbonitrile] | 309 | 0.045 |
| Cc1c2n(c3c(-c4ncc(C(F)(F)F)s4)cc(F)cc13)CCNC2=O [Example 186, 8-Fluoro-10-methyl-6-[5-(trifluoromethyl)-1,3-thiazol-2-yl]-3,4-dihydro-2H-pyrazino[1,2-a]indol-1-one] | 263 | 0.33 |
| O=C1NCCCn2c1cc1cc(F)cc(-c3ccc(Cl)cc3)c12 [Example 29, 7-(4-Chloro-phenyl)-9-fluoro-2,3,4,5-tetrahydro-[1,4]diazepino[1,2-a]indol-1-one] | 263.5 | 0.03 |
| Cc1c2n(c3c(-c4cc(F)c(F)c(F)c4)cc(Cl)cc13)CCNC2=O [Example 136, 8-Chloro-10-methyl-6-(3,4,5-trifluoro-phenyl)-3,4-dihydro-2H-pyrazino[1,2-a]indol-1-one] | 253 | 0.021 |
| O=C1NCCn2c1cc1cc(F)cc(-c3ccccc3)c12 [Example 12, 8-Fluoro-6-phenyl-3,4-dihydro-2H-pyrazino[1,2-a]indol-1-one] | 236.5 | 0.037 |
| Cc1c2n(c3c(-c4cccnc4)cc(F)cc13)CCNC2=O [Example 152, 8-Fluoro-10-methyl-6-pyridin-3-yl-3,4-dihydro-2H-pyrazino[1,2-a]indol-1-one] | 239 | 0.13 |
| Cc1c2n(c3c(-c4ccc(F)c(F)c4)cc(Cl)cc13)CCNC2=O [Example 64, 8-Chloro-6-(3,4-difluoro-phenyl)-10-methyl-3,4-dihydro-2H-pyrazino[1,2-a]indol-1-one] | 235.5 | 0.12 |
| Cc1ccc(-c2cc(C#N)cc3c(C)c4n(c23)CCNC4=O)cc1F [Example 267, 6-(3-Fluoro-4-methylphenyl)-10-methyl-1-oxo-3,4-dihydro-2H-pyrazino[1,2-a]indole-8-carbonitrile] | 255 | 0.71 |
| O=C1NCCCn2c1cc1cc(Cl)cc(-c3ccc(Cl)cc3)c12 [Example 53, 9-Chloro-7-(4-chloro-phenyl)-2,3,4,5-tetrahydro-[1,4]diazepino[1,2-a]indol-1-one] | 237 | 0.15 |
| Cc1c2n(c3c(-c4ccc(C(F)(F)F)cc4)cc(C#N)cc13)CCCNC2=O [Example 197, 11-Methyl-1-oxo-7-[4-(trifluoromethyl)phenyl]-2,3,4,5-tetrahydro-[1,4]diazepino[1,2-a]indole-9-carbonitrile] | 252 | 0.14 |
| Cc1c2n(c3c(-c4ccc(OC(F)(F)F)cc4)cc(C#N)cc13)CCNC2=O [Example 170, 10-Methyl-1-oxo-6-(4-trifluoromethoxy-phenyl)-1,2,3,4-tetrahydro-pyrazino[1,2-a]indole-8-carbonitrile] | 239 | 0.014 |
| COc1ccc(-c2cc(F)cc3cc4n(c23)[C@H](C)CNC4=O)cc1 [Example 5, (R)-8-Fluoro-6-(4-methoxy-phenyl)-4-methyl-3,4-dihydro-2H-pyrazino[1,2-a]indol-1-one] | 228.5 | 0.034 |
| Cc1cc(-c2cc(F)cc3c(C)c4n(c23)CCNC4=O)ccc1F [Example 148, 8-Fluoro-6-(4-fluoro-3-methyl-phenyl)-10-methyl-3,4-dihydro-2H-pyrazino[1,2-a]indol-1-one] | 236 | 0.078 |
| Cc1c2n(c3c(-c4ccc5c(c4)CCO5)cc(Cl)cc13)CCNC2=O [Example 116, 8-Chloro-6-(2,3-dihydro-benzofuran-5-yl)-10-methyl-3,4-dihydro-2H-pyrazino[1,2-a]indol-1-one] | 261 | 0.055 |
| Cc1c2n(c3c(-c4ccccc4)cc(Cl)cc13)CCNC2=O [Example 88, 8-Chloro-10-methyl-6-phenyl-3,4-dihydro-2H-pyrazino[1,2-a]indol-1-one] | 230.5 | 0.053 |
| Cc1cc(-c2cc(C#N)cc3c(C)c4n(c23)CCNC4=O)ccc1F [Example 292, 6-(4-Fluoro-3-methylphenyl)-10-methyl-1-oxo-3,4-dihydro-2H-pyrazino[1,2-a]indole-8-carbonitrile] | 232 | 0.089 |
| Cc1c2n(c3c(-c4ccncc4)cc(C#N)cc13)CCCNC2=O [Example 250, 11-Methyl-1-oxo-7-pyridin-4-yl-2,3,4,5-tetrahydro-[1,4]diazepino[1,2-a]indole-9-carbonitrile] | 285 | 0.15 |

More lines, main results first:

| melting point [°C] | Structure (SMILES) | EC (150% of control) [1] [µM] |
| --- | --- | --- |
| 208 | COc1ccc(-c2cc(C)cc3cc4n(c23)CCCNC4=O)cc1 [Example 56, 7-(4-Methoxy-phenyl)-9-methyl-2,3,4,5-tetrahydro-[1,4]diazepino[1,2-a]indol-1-one] | 0.35 |
| 257 | Cc1cc(-c2ccc(F)cc2)c2c(c1)cc1n2CCNC1=O [Example 62, 6-(4-Fluoro-phenyl)-8-methyl-3,4-dihydro-2H-pyrazino[1,2-a]indol-1-one] | 0.32 |
| 227.5 | COc1ccc(-c2cc(F)c(F)c3cc4n(c23)CCNC4=O)cc1 [Example 33, 8,9-Difluoro-6-(4-methoxy-phenyl)-3,4-dihydro-2H-pyrazino[1,2-a]indol-1-one] | 0.22 |
| 286.5 | O=C1NCCn2c1cc1cc(F)c(F)c(-c3ccc(F)cc3)c12 [Example 38, 7,8-Difluoro-6-(4-fluoro-phenyl)-3,4-dihydro-2H-pyrazino[1,2-a]indol-1-one] | 0.03 |
| 278.5 | COc1ccc(-c2cc(C#N)cc3cc4n(c23)CCNC4=O)cc1 [Example 79, 6-(4-Methoxy-phenyl)-1-oxo-1,2,3,4-tetrahydro-pyrazino[1,2-a]indole-8-carbonitrile] | 0.004 |
| 249.5 | Cc1cc(-c2ccc(F)c(F)c2)c2c(c1)cc1n2CCNC1=O [Example 60, 6-(3,4-Difluoro-phenyl)-8-methyl-3,4-dihydro-2H-pyrazino[1,2-a]indol-1-one] | 0.71 |
| 269 | Cc1cc(-c2ccc(Cl)cc2)c2c(c1)cc1n2CCNC1=O [Example 59, 6-(4-Chloro-phenyl)-8-methyl-3,4-dihydro-2H-pyrazino[1,2-a]indol-1-one] | 0.18 |
| 232.5 | O=C1NCCCn2c1cc1cc(F)c(F)c(-c3ccc(Cl)cc3)c12 [Example 43, 7-(4-Chloro-phenyl)-8,9-difluoro-2,3,4,5-tetrahydro-[1,4]diazepino[1,2-a]indol-1-one] | 0.08 |
| 260.5 | COc1ccc(-c2cc(C#N)cc3cc4n(c23)CCCNC4=O)cc1 [Example 275, 7-(4-Methoxyphenyl)-1-oxo-2,3,4,5-tetrahydro-[1,4]diazepino[1,2-a]indole-9-carbonitrile] | 1.11 |
